Patent US9284321B2, “Piperazino[1,2-a]indol-1-ones and [1,4]diazepino[1,2-a]indol-1-one” (Hoffmann-La Roche Inc., priority 2012, dated 2016)

What was measured:
[1] = tested on: human embryonic stem cell derived neural stem cells (NSCs); test: Neural Stem Cell Proliferation Assay (neurogenesis assay, ATP levels by CellTiterGlo); assay type: cell-based; settings: 96 h, compound concentration at which 150% activity of control (100%) is reached, NSC proliferation by ATP level after 4 days incubation, dose response 8 μM to 8 nM
Protocol: Neurogenic properties of small molecules are determined based on the proliferation of human embryonic stem cell derived neural stem cells (NSCs) which were derived via a dual smad inhibition as previously described (Chambers, S. M., et al., Highly efficient neural conversion of human ES and iPS cells by dual inhibition of SMAD signaling, Nature biotechnology, 2009. 27(3): p. 275-80.)
Compounds respond is measured by the increase in cells based on ATP levels
(Promega:CellTiterGlo®) after an incubation period of 4 days.
NSCs are thawed and expanded over 3 passages. On the 14th day, NSCs are seeded in Polyornithin/Laminin coated 384 well plates at a cell density of 21′000 cells/cm^2 in a media volume of 38 μl.
4 hours after cell seeding, compound solutions are added at a volume of 2 μl. Stock solutions of the compounds (water, 5% DMSO) are diluted to obtain a dose response (11 points, dilution factor is 2), ranging from 8 μM to 8 nM. Controls are run to consistently determine the neurogenic properties of the cells:
Negative (neutral) control is cell culture Media (final DMSO concentration: 0.25%).
• 1. cell culture Media+100 ng/ml FGF2 (final DMSO concentration: 0.1%) • 2. cell culture Media+20 ng/ml EGF (final DMSO concentration: 0.1%) • 3. cell culture Media+100 ng/ml Wnt3a (final DMSO concentration: 0.1%)
After 4 days incubation at 37° C., 5% CO2, the amount of ATP per well is quantified. The ATP concentration is proportional to the cell number. ATP is quantified by using the Promega CellTiterGlo® kit. The CellTiterGlo® reagents contain a cell lysis buffer, a thermo stable luciferase (UltraGlo™ recombinant luciferase), magnesium and luciferin. Luciferin reacts with ATP producing oxyluciferin, AMP and light. The luminescence signal is proportional to the ATP content.
The value of negative (neutral) control is determined for each assay plate by taking the average of 16 negative control wells. The neurogenic compound response is calculated for each compound as (compound/Negative Control)*100.
The values of EC150 from the dose response curve are determined for each test compound. The EC150 is the compound concentration at which 150% activity of control (100%) is reached.

**Q.** Which results are given for `COc1ccc(-c2cc(F)cc3cc4n(c23)CCNC4=O)cc1` [Example 19, 8-Fluoro-6-(4-methoxy-phenyl)-3,4-dihydro-2H-pyrazino[1,2-a]indol-1-one]?
**A.** EC (150% of control) [1]: 0.007 µM; melting point: 274.5 °C

**Q.** Which EC (150% of control) [1] does the source give for `O=C1NCCCn2c1cc1cc(F)cc(-c3ccncc3)c12` [Example 20, 9-Fluoro-7-pyridin-4-yl-2,3,4,5-tetrahydro-[1,4]diazepino[1,2-a]indol-1-one] here?
**A.** 0.037 µM

**Q.** What about the melting point of the same molecule?
**A.** 309 °C

**Q.** Which EC (150% of control) [1] does the source give for `O=C1NCCn2c1cc1cc(F)cc(-c3ccncc3)c12` [Example 21, 8-Fluoro-6-pyridin-4-yl-3,4-dihydro-2H-pyrazino[1,2-a]indol-1-one] here?
**A.** 0.036 µM

**Q.** And the melting point?
**A.** 323.5 °C

**Q.** With `O=C1NCCn2c1cc1cc(F)cc(-c3ccc(F)c(F)c3)c12` [Example 22, 6-(3,4-Difluoro-phenyl)-8-fluoro-3,4-dihydro-2H-pyrazino[1,2-a]indol-1-one] as the molecule, how does the EC (150% of control) [1] read?
**A.** 0.037 µM

**Q.** What about the melting point of the same molecule?
**A.** 289.5 °C

**Q.** With `O=C1NCCn2c1cc1cc(F)cc(-c3ccc(Cl)cc3)c12` [Example 23, 6-(4-Chloro-phenyl)-8-fluoro-3,4-dihydro-2H-pyrazino[1,2-a]indol-1-one] as the molecule, how does the EC (150% of control) [1] read?
**A.** 0.019 µM

**Q.** What about the melting point of the same molecule?
**A.** 322 °C

**Q.** Which results are given for `Cc1ccc(-c2cc(F)cc3cc4n(c23)CCNC4=O)cc1` [Example 24, 8-Fluoro-6-p-tolyl-3,4-dihydro-2H-pyrazino[1,2-a]indol-1-one]?
**A.** EC (150% of control) [1]: 0.017 µM; melting point: 271.5 °C

**Q.** What does the source list for `O=C1NCCn2c1cc1cc(F)cc(-c3ccc(C(F)(F)F)cc3)c12` [Example 25, 8-Fluoro-6-(4-trifluoromethyl-phenyl)-3,4-dihydro-2H-pyrazino[1,2-a]indol-1-one]?
**A.** EC (150% of control) [1]: 0.023 µM; melting point: 346 °C

**Q.** For `O=C1NCCCn2c1cc1cc(F)cc(-c3ccc(F)c(F)c3)c12` [Example 28, 7-(3,4-Difluoro-phenyl)-9-fluoro-2,3,4,5-tetrahydro-[1,4]diazepino[1,2-a]indol-1-one], which EC (150% of control) [1] is on record?
**A.** 0.1 µM

**Q.** What about the melting point of the same molecule?
**A.** 230.5 °C

**Q.** With `O=C1NCCCn2c1cc1cc(F)cc(-c3ccc(Cl)cc3)c12` [Example 29, 7-(4-Chloro-phenyl)-9-fluoro-2,3,4,5-tetrahydro-[1,4]diazepino[1,2-a]indol-1-one] as the molecule, how does the EC (150% of control) [1] read?
**A.** 0.03 µM

**Q.** And the melting point?
**A.** 263.5 °C

**Q.** Which EC (150% of control) [1] does the source give for `Cc1ccc(-c2cc(F)cc3cc4n(c23)CCCNC4=O)cc1` [Example 30, 9-Fluoro-7-p-tolyl-2,3,4,5-tetrahydro-[1,4]diazepino[1,2-a]indol-1-one] here?
**A.** 0.036 µM

**Q.** What about the melting point of the same molecule?
**A.** 258.5 °C

**Q.** Which results are given for `O=C1NCCCn2c1cc1cc(F)cc(-c3ccc(C(F)(F)F)cc3)c12` [Example 31, 9-Fluoro-7-(4-trifluoromethyl-phenyl)-2,3,4,5-tetrahydro-[1,4]diazepino[1,2-a]indol-1-one]?
**A.** EC (150% of control) [1]: 0.056 µM; melting point: 257 °C

**Q.** Which results are given for `O=C1NCCn2c1cc1c(F)c(F)cc(-c3ccc(F)cc3)c12` [Example 32, 8,9-Difluoro-6-(4-fluoro-phenyl)-3,4-dihydro-2H-pyrazino[1,2-a]indol-1-one]?
**A.** EC (150% of control) [1]: 2.6 µM; melting point: 283.5 °C

**Q.** Which EC (150% of control) [1] does the source give for `COc1ccc(-c2cc(F)c(F)c3cc4n(c23)CCNC4=O)cc1` [Example 33, 8,9-Difluoro-6-(4-methoxy-phenyl)-3,4-dihydro-2H-pyrazino[1,2-a]indol-1-one] here?
**A.** 0.22 µM

**Q.** What about the melting point of the same molecule?
**A.** 227.5 °C

**Q.** For `O=C1NCCn2c1cc1c(F)c(F)cc(-c3ccc(Cl)cc3)c12` [Example 34, 6-(4-Chloro-phenyl)-8,9-difluoro-3,4-dihydro-2H-pyrazino[1,2-a]indol-1-one], which EC (150% of control) [1] is on record?
**A.** 1.4 µM

**Q.** And the melting point?
**A.** 327 °C

**Q.** With `O=C1NCCn2c1cc1c(F)c(F)cc(-c3ccc(F)c(F)c3)c12` [Example 35, 6-(3,4-Difluoro-phenyl)-8,9-difluoro-3,4-dihydro-2H-pyrazino[1,2-a]indol-1-one] as the molecule, how does the EC (150% of control) [1] read?
**A.** 2.6 µM

**Q.** And the melting point?
**A.** 317.5 °C

**Q.** For `O=C1NCCCn2c1cc1c(F)c(F)cc(-c3ccc(F)cc3)c12` [Example 36, 9,10-Difluoro-7-(4-fluoro-phenyl)-2,3,4,5-tetrahydro-[1,4]diazepino[1,2-a]indol-1-one], which EC (150% of control) [1] is on record?
**A.** 3.9 µM

**Q.** And the melting point?
**A.** 287 °C

**Q.** With `COc1ccc(-c2cc(F)c(F)c3cc4n(c23)CCCNC4=O)cc1` [Example 37, 9,10-Difluoro-7-(4-methoxy-phenyl)-2,3,4,5-tetrahydro-[1,4]diazepino[1,2-a]indol-1-one] as the molecule, how does the EC (150% of control) [1] read?
**A.** 0.45 µM

**Q.** What about the melting point of the same molecule?
**A.** 207.5 °C

**Q.** Which results are given for `O=C1NCCn2c1cc1cc(F)c(F)c(-c3ccc(F)cc3)c12` [Example 38, 7,8-Difluoro-6-(4-fluoro-phenyl)-3,4-dihydro-2H-pyrazino[1,2-a]indol-1-one]?
**A.** EC (150% of control) [1]: 0.03 µM; melting point: 286.5 °C

**Q.** For `COc1ccc(-c2c(F)c(F)cc3cc4n(c23)CCNC4=O)cc1` [Example 39, 7,8-Difluoro-6-(4-methoxy-phenyl)-3,4-dihydro-2H-pyrazino[1,2-a]indol-1-one], which EC (150% of control) [1] is on record?
**A.** 0.005 µM

**Q.** What about the melting point of the same molecule?
**A.** 274.5 °C

**Q.** With `O=C1NCCCn2c1cc1cc(F)c(F)c(-c3ccc(F)cc3)c12` [Example 40, 8,9-Difluoro-7-(4-fluoro-phenyl)-2,3,4,5-tetrahydro-[1,4]diazepino[1,2-a]indol-1-one] as the molecule, how does the EC (150% of control) [1] read?
**A.** 0.024 µM

**Q.** What about the melting point of the same molecule?
**A.** 223.5 °C

**Q.** For `COc1ccc(-c2c(F)c(F)cc3cc4n(c23)CCCNC4=O)cc1` [Example 41, 8,9-Difluoro-7-(4-methoxy-phenyl)-2,3,4,5-tetrahydro-[1,4]diazepino[1,2-a]indol-1-one], which EC (150% of control) [1] is on record?
**A.** 0.006 µM

**Q.** What about the melting point of the same molecule?
**A.** 182.5 °C

**Q.** Which results are given for `O=C1NCCCn2c1cc1cc(F)c(F)c(-c3ccc(F)c(F)c3)c12` [Example 42, 7-(3,4-Difluoro-phenyl)-8,9-difluoro-2,3,4,5-tetrahydro-[1,4]diazepino[1,2-a]indol-1-one]?
**A.** EC (150% of control) [1]: 0.21 µM; melting point: 225 °C

**Q.** Which EC (150% of control) [1] does the source give for `O=C1NCCCn2c1cc1cc(F)c(F)c(-c3ccc(Cl)cc3)c12` [Example 43, 7-(4-Chloro-phenyl)-8,9-difluoro-2,3,4,5-tetrahydro-[1,4]diazepino[1,2-a]indol-1-one] here?
**A.** 0.08 µM

**Q.** What about the melting point of the same molecule?
**A.** 232.5 °C

**Q.** For `O=C1NCCn2c1cc1cc(F)c(F)c(-c3ccc(F)c(F)c3)c12` [Example 44, 6-(3,4-Difluoro-phenyl)-7,8-difluoro-3,4-dihydro-2H-pyrazino[1,2-a]indol-1-one], which EC (150% of control) [1] is on record?
**A.** 0.3 µM

**Q.** And the melting point?
**A.** 305 °C

**Q.** Which EC (150% of control) [1] does the source give for `O=C1NCCn2c1cc1cc(F)c(F)c(-c3ccc(Cl)cc3)c12` [Example 45, 6-(4-Chloro-phenyl)-7,8-difluoro-3,4-dihydro-2H-pyrazino[1,2-a]indol-1-one] here?
**A.** 0.076 µM

**Q.** What about the melting point of the same molecule?
**A.** 332.5 °C

**Q.** What does the source list for `O=C1NCCCn2c1cc1cc(Cl)cc(-c3ccc(F)c(F)c3)c12` [Example 46, 9-Chloro-7-(3,4-difluoro-phenyl)-2,3,4,5-tetrahydro-[1,4]diazepino[1,2-a]indol-1-one]?
**A.** EC (150% of control) [1]: 0.69 µM; melting point: 230.5 °C

**Q.** What does the source list for `Cc1ccc(-c2cc(Cl)cc3cc4n(c23)CCCNC4=O)cc1` [Example 47, 9-Chloro-7-p-tolyl-2,3,4,5-tetrahydro-[1,4]diazepino[1,2-a]indol-1-one]?
**A.** EC (150% of control) [1]: 0.6 µM; melting point: 227 °C

**Q.** For `O=C1NCCCn2c1cc1cc(Cl)cc(-c3ccc(F)cc3)c12` [Example 48, 9-Chloro-7-(4-fluoro-phenyl)-2,3,4,5-tetrahydro-[1,4]diazepino[1,2-a]indol-1-one], which EC (150% of control) [1] is on record?
**A.** 0.43 µM

**Q.** And the melting point?
**A.** 260 °C

**Q.** Which EC (150% of control) [1] does the source give for `O=C1NCCn2c1cc1cc(Cl)cc(-c3ccc(Cl)cc3)c12` [Example 49, 8-Chloro-6-(4-chloro-phenyl)-3,4-dihydro-2H-pyrazino[1,2-a]indol-1-one] here?
**A.** 0.045 µM

**Q.** And the melting point?
**A.** 320 °C

**Q.** Which EC (150% of control) [1] does the source give for `O=C1NCCn2c1cc1cc(Cl)cc(-c3ccc(F)c(F)c3)c12` [Example 50, 8-Chloro-6-(3,4-difluoro-phenyl)-3,4-dihydro-2H-pyrazino[1,2-a]indol-1-one] here?
**A.** 0.13 µM

**Q.** What about the melting point of the same molecule?
**A.** 277.5 °C

**Q.** For `O=C1NCCn2c1cc1cc(Cl)cc(-c3ccc(F)cc3)c12` [Example 51, 8-Chloro-6-(4-fluoro-phenyl)-3,4-dihydro-2H-pyrazino[1,2-a]indol-1-one], which EC (150% of control) [1] is on record?
**A.** 0.098 µM

**Q.** What about the melting point of the same molecule?
**A.** 298 °C

**Q.** Which EC (150% of control) [1] does the source give for `COc1ccc(-c2cc(Cl)cc3cc4n(c23)CCNC4=O)cc1` [Example 52, 8-Chloro-6-(4-methoxy-phenyl)-3,4-dihydro-2H-pyrazino[1,2-a]indol-1-one] here?
**A.** 0.022 µM

**Q.** And the melting point?
**A.** 282.5 °C
